The record followed here is patent US7417054B2, “Naphthyridine compounds” (Janssen Pharmaceutica N.V., priority 2005, dated 2008).

Molecules are shown by their SMILES. Read-outs that look alike come from different tables or passages of the source.

By Ki is commonly meant the dissociation constant of the complex between target and ligand, obtained from inhibition or displacement.

In assay [1] the target is T1, human H3 receptor (Homo sapiens, UniProt Q9Y5N1).
T1 construct: expressed in transfected cells; host or cells: SK-N-MC cells
Put plainly: Cyclic AMP accumulation, β-galactosidase reporter in SK-N-MC cells. It is filed as cell-based. How it is done: Sublines of SK-N-MC cells were created that expressed a reporter construct and the human H3 receptor. The reporter gene (β-galactosidase) is under the control of multiple cyclic AMP responsive elements. In 96-well plates, histamine was added directly to the cell media followed 5 min later by an addition of forskolin (5 μM final concentration). When appropriate, antagonists were added 10 min prior to agonist addition. After a 6-h incubation at 37° C., the media was aspirated and the cells washed with 200 μL of phosphate-buffered saline followed by a second aspiration. Cells were lysed with 25 μL 0.1× assay buffer (10 mM Na-phosphate, pH 8, 0.2 mM MgSO4, 0.01 mM MnCl2) and incubated at rt for 10 min. Cells were then incubated for 10 min with 100 μL of 1× assay buffer containing 0.5% Triton and 40 mM β-mercaptoethanol. Color was developed using 25 μL of 1 mg/mL substrate solution (chlorophenolred β-D galactopyranoside; Roche Molecular Biochemicals, Indianapolis, Ind.) Color was quantitated on a microplate reader at absorbance 570 nm.

For assay [2], the target named is T1, human H3 receptor. Put plainly: H3 receptor binding, N-[3H]-α-methylhistamine displacement on SK-N-MC cell membranes. To be noted: cloned human H3 receptor in SK-N-MC cell membranes; 0.8 nM N-[3H]-α-methylhistamine; 60 min at 25° C.
Assay [3] concerns the target T2, human SERT (Homo sapiens, UniProt P31645).
T2 construct: expressed in transfected cells; host or cells: HEK293
Put plainly: Human SERT binding, 3H-citalopram displacement on HEK293 membranes. As to conditions: HEK293 membranes expressing the human SERT, rt for 1 h. How it is done: Homogenized HEK293 (Human Embryonic Kidney) membranes expressing the human SERT were incubated with ^3H-citalopram (SERT) at rt for 1 h in 50 mM Tris, 120 mM NaCl, 5 mM KCl (pH 7.4). […] The membranes were washed and the radioactivity was counted as above.

The target of assay [4] is Rat SERT (Rattus norvegicus, UniProt P31652). Kind of assay: Rat brain SERT binding, [3H]-Citalopram displacement on rat brain membranes.
Protocol: The supernatant was removed and re-centrifuged at 15,000 rpm for 30 min. […] Membranes were incubated with 0.6 nM [^3H]-Citalopram plus/minus test compounds for 60 min at 25° C. and harvested by rapid filtration over GF/C glass fiber filters (pretreated with 0.3% polyethylenimine) followed by four washes with ice-cold buffer.
Where [5] appears, read: Rat SERT Ki (nM), rat brain membranes without cerebellum, 0.6 nM [3H]-Citalopram, 60 min at 25° C.
Where [6] appears, read: read-out: Rat SERT Ki, rat brain membranes without cerebellum, 0.6 nM [3H]-Citalopram, 60 min at 25° C.

Sequence of Rat SERT (P31652 whole entry): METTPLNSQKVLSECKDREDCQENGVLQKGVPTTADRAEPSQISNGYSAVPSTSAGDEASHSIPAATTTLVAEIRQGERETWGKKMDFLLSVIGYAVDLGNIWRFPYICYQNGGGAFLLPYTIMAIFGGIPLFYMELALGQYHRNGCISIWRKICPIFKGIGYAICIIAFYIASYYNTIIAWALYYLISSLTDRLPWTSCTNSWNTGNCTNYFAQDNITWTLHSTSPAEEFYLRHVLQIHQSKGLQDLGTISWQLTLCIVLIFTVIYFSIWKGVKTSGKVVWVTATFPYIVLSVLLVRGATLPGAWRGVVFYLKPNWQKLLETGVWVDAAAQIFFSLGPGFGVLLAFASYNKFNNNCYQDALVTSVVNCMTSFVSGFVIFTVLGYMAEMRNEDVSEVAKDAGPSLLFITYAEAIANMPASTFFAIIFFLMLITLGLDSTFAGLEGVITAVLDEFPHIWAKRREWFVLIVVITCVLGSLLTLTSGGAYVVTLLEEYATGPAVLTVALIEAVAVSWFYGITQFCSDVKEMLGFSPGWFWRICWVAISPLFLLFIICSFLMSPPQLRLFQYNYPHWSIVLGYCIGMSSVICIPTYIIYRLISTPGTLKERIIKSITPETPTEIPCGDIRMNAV
T2 sequence (P31645 whole entry): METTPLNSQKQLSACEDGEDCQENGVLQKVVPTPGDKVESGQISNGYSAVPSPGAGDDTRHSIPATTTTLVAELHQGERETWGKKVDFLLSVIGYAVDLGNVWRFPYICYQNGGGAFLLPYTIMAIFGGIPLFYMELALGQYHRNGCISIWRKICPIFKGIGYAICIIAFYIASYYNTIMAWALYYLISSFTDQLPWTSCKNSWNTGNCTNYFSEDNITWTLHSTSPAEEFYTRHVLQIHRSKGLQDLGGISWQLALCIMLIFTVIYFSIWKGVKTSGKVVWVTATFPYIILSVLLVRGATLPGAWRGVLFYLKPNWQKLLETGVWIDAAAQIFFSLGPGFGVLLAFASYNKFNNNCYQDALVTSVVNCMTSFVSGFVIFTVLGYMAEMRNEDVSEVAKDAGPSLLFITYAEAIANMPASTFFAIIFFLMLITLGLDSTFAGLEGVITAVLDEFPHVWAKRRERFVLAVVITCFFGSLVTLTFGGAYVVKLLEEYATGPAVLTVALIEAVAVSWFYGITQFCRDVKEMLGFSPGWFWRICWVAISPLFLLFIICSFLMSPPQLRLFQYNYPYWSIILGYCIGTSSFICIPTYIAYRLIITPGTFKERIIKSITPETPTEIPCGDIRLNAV
T1 sequence (Q9Y5N1 whole entry): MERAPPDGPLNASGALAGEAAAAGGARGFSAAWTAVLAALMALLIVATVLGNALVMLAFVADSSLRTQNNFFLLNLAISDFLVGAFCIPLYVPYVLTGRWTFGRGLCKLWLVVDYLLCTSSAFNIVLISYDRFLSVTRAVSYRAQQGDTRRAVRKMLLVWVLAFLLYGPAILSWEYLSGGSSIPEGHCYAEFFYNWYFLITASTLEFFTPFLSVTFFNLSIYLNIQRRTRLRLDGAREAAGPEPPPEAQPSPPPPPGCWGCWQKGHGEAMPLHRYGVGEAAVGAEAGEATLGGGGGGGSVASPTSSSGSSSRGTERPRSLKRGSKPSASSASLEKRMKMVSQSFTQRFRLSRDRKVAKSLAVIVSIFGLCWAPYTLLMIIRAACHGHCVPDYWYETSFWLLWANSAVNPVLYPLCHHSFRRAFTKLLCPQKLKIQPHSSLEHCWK

In turn, `CN1Cc2cc(OCCCN3CCCCC3)ncc2C(c2ccc(Cl)c(Cl)c2)C1` (racemic) [Example 16, 4-(3,4-Dichloro-phenyl)-2-methyl-7-(3-piperidin-1-yl-propoxy)-1,2,3,4-tetrahydro-[2,6]-naphthyridine] had a Kb in assay [1] of 20 nM. The results for the inhibitory constant (Ki) in assay [2] and in assay [3] were 18 nM and 120 nM, respectively.

On to `Fc1ccccc1C1CNCc2cc(OCCCN3CCCCC3)ncc21` (centres unmarked) [Example 1, 4-(2-Fluoro-phenyl)-7-(3-piperidin-1-yl-propoxy)-1,2,3,4-tetrahydro-[2,6]naphthyridine], for which the inhibition constant Ki in assay [4] was found to be 1000 nM; in assay [2], 1 nM. Further, the Kb in assay [1] (read-out: pA2 (converted)) was 0.794 nM.

For the compound `Clc1cccc(C2CNCc3cc(OCCCN4CCCCC4)ncc32)c1` (centres unmarked) [Example 24, 4-(3-Chloro-phenyl)-7-(3-piperidin-1-yl-propoxy)-1,2,3,4-tetrahydro-[2,6]naphthyridine], the Ki is 269 nM in assay [4] (setting [5]) and 2 nM in assay [2]. For the same compound, in assay [1] (read-out: pA2 (converted)), the Kb is 2.51 nM.

On to `COc1cccc(C2CNCc3cc(OCCCN4CCCCC4)ncc32)c1` (centres unmarked) [Example 13, 4-(3-Methoxy-phenyl)-7-(3-piperidin-1-yl-propoxy)-1,2,3,4-tetrahydro-[2,6]-naphthyridine], for which the Ki in assay [4] is 179 nM; in assay [2] it was 1 nM. Moreover, the Kb in assay [1] (read-out: pA2 (converted)) is 1 nM.

`Fc1ccc(C2CNCc3cc(OCCCN4CCCCC4)ncc32)cc1Cl` (centres unmarked) [Example 33, 4-(3-Chloro-4-fluoro-phenyl)-7-(3-piperidin-1-yl-propoxy)-1,2,3,4-tetrahydro-[2,6]naphthyridine]: the inhibitory constant (Ki) was 142 nM in assay [4] and 1 nM in assay [2]. In assay [1] (read-out: pA2 (converted)), the Kb was 3.16 nM.

In the case of `c1ccc(C2CNCc3cc(OCCCN4CCOCC4)ncc32)cc1` (centres unmarked) [Example 47, 7-(3-Morpholin-4-yl-propoxy)-4-phenyl-1,2,3,4-tetrahydro-[2,6]naphthyridine], the Kb in assay [1] is 12.6 nM. This compound returned a Ki in assay [2] of 11 nM.

For `CN1Cc2cc(OCCCN3CCCCC3)ncc2C(c2cccc(F)c2)C1` (centres unmarked) [Example 34, 4-(3-Fluoro-phenyl)-2-methyl-7-(3-piperidin-1-yl-propoxy)-1,2,3,4-tetrahydro-[2,6]-naphthyridine], the Ki in assay [4] was determined as 186 nM; in assay [2], 2 nM. Also, the Kb in assay [1] (read-out: pA2 (converted)) is 1 nM.

Take `CCN(CC)CCCOc1cc2c(cn1)C(c1ccccc1)CNC2` (centres unmarked) [Example 5, Diethyl-[3-(8-phenyl-5,6,7,8-tetrahydro-[2,6]naphthyridin-3-yloxy)-propyl]-amine]: the Ki in assay [4] (setting [5]) turned out to be 1200 nM; in assay [2], 1 nM. Also, the Kb in assay [1] (read-out: pA2 (converted)) was 2 nM.

With `Fc1cccc(C2CNCc3cc(OCCCN4CCCCC4)ncc32)c1` (centres unmarked) [Example 32, 4-(3-Fluoro-phenyl)-7-(3-piperidin-1-yl-propoxy)-1,2,3,4-tetrahydro-[2,6]naphthyridine], the Ki in assay [4] worked out at 2000 nM; in assay [2], 2 nM. In addition, in assay [1] (read-out: pA2 (converted)), the Kb is 2.51 nM.

`CCN(CC)CCCOc1cc2c(cn1)C(c1ccc(Cl)c(Cl)c1)CN(C)C2` (centres unmarked) [Example 30, {3-[8-(3,4-Dichloro-phenyl)-6-methyl-5,6,7,8-tetrahydro-[2,6]naphthyridin-3-yloxy]-propyl}-diethyl-amine]: the inhibition constant (Ki) in assay [4] (setting [6]) came to 33 nM; in assay [2], 16 nM; in assay [3] it was 30 nM.

As for `COc1ccc(C2CN(C)Cc3nc(C#CCCN4CCCCC4)ccc32)cc1` (centres unmarked) [Example 51, 5-(4-Methoxy-phenyl)-7-methyl-2-(4-piperidin-1-yl-but-1-ynyl)-5,6,7,8-tetrahydro-[1,7]naphthyridine], the inhibition constant Ki is 21 nM in assay [4], 11 nM in assay [2] and 32 nM in assay [3].

Consider `COc1ccc(C2CNCc3cc(OCCCN4CCOCC4)ncc32)cc1` (centres unmarked) [Example 11, 4-(4-Methoxy-phenyl)-7-(3-morpholin-4-yl-propoxy)-1,2,3,4-tetrahydro-[2,6]-naphthyridine], for which the Ki in assay [4] (setting [6]) was 53 nM; in assay [2], 43 nM; in assay [3], 189 nM.
